Test results as given in US20250361234A1 (NICO THERAPEUTICS, INC., priority 2022, published 2025).
pIC50: −log10 of the molar value.

Biological target: T1, full-length SARM1 (FL-SARM1) (Homo sapiens, UniProt Q6SZW1)
T1 sequence (Q6SZW1 28-724): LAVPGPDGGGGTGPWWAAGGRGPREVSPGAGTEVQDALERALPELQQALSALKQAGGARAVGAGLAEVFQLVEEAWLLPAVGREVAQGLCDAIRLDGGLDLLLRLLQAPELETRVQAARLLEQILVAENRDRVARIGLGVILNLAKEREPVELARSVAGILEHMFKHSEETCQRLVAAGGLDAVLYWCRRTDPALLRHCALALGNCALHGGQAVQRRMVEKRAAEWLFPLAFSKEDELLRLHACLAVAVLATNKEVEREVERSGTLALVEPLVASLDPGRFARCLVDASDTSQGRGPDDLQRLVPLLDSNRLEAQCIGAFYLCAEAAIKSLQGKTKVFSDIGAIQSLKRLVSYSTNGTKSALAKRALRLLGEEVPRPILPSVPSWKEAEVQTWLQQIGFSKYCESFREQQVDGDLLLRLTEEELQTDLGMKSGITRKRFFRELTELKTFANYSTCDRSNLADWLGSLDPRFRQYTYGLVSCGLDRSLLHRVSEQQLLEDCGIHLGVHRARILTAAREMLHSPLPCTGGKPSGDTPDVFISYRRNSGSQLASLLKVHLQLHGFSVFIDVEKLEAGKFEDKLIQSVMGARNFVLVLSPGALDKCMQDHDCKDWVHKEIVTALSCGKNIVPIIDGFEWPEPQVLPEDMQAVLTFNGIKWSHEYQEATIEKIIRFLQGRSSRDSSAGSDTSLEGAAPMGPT
Test: FL-SARM1 cellular lysate assay (NAD/NADH-Glo readout of remaining NAD+)
Conditions: SARM1 cellular lysate from transfected HEK293T cells, NAD+ and NMN, 11 point curve; for IC50: Activity (μM); for pIC50: Activity
Procedure: Preparation of full-length SARM1 (FL-SARM1) lysate: HEK293T cells (ATCC: CRL-3216) were grown on 150 mm TC-treated dishes to 80-90% confluency in complete DMEM (Thermo Fisher: 11965175) supplemented with 10% HI-FBS (VWR: 10802-772), 1× Pen/Strep (Thermo Fisher: 15140122), 1× NEAA (Thermo Fisher: 1140050), 1× glutamax (Thermo Fisher: 35050061), and 1 mM sodium pyruvate (Thermo Fisher: 11360070)) at 37° C. and 5% CO2. One hour prior to transfection, the media was replaced with fresh, 37° C. complete DMEM (20 mL per one 150 mm dish) supplemented with additional 10 mM glucose (Alfa Aesar AAJ60067EQE). Per one 150 mm dish, 30 μg FL-SARM1 (SEQ. ID. 1; cloned in-house) plasmid was dissolved in 1 mL DMEM at ambient temperature and were mixed by inverting the tube 8-10 times. 90 μL of GenJet™ in vitro DNA transfection reagent (Ver2) was dissolved in 1 mL DMEM at ambient temperature and were mixed by inverting the tube 8-10 times. The plasmid and transfection agent solutions were combined, mixed by 8-10 inversions and incubated for 10 minutes at ambient temperature. 2 mL of this transfection mixture was added to each dish containing HEK293T cells as prepared above followed by a gentle mixing of 4-5 horizontal rotations. The dishes were incubated at 37° C. and 5% CO2 for 24 h. The dishes were removed from the incubator, the medium was aspirated and the cells were scraped off using cell scrapers in ice-cold 1× PBS (5 mL/dish, Thermo Fisher Scientific 10010023). The collected cells were centrifuged at 300 g for 5 minutes at 4° C. The supernatant was aspirated and the pellet was frozen at −80° C. until needed. The cell pellet from 30 dishes was dissolved in 30 mL 1× PBS supplemented with 4 tablets of Complete, Mini EDTA-free protease inhibitor cocktail at 4° C. This mixture was sonicated on ice for 10 minutes at 50% amplitude with a 1 second on/1 second off interval using a Model 120 sonicator (Thermo Fisher Scientific, FB120110). The lysate was centrifuged at 16000 g for 10 minutes at 4° C.
To a white 384-well Proxiplate (PerkinElmer, PE-6008280) was added 50 nL/well of a DMSO solution containing test compounds followed by 7.5 mL/well of a 0.067 mg/mL solution of SARM1 cellular lysate in reaction buffer (DPBS containing CHAPSO (0.1%) and fatty acid free BSA (0.032%)). The plate was centrifuged for 1 minute at 1000 RPM and then placed in an incubator at 23° C. for 15 minutes. To the wells were added 2.5 mL/well of a solution containing 40 mM NAD^+ and 4 mM NMN in reaction buffer. The plate was centrifuged for 1 min at 1000 RPM, the plate was sealed and placed in an incubator at 23° C. for 3.5 hours before adding 3.5 mL/well of NAD/NADH-Glo™ solution (preparation as described by Promega using the extended detection protocol). The plate was centrifuged for 1 minute at 1000 RPM and then incubated at 23° C. for 20 minutes. 1 mL/well of a 3.625 mM solution of menadione in DMSO was added and the plate was centrifuged for 1 minute at 1000 RPM. […] Percent inhibition was calculated as follows:
IC50 values were calculated from an 11 point curve using ½ log dilutions using a four-parameter logistic regression curve fit.

| SMILES | IC50 [µM] | pIC50 |
| --- | --- | --- |
| Cc1ccc(NC(=O)N2C3C[C@H]2C[C@]2(C3)CC2(F)F)cc1-c1cncc(F)c1 (stereo in doubt) [Example 10, trans-2′,2′-difluoro-N-(3-(5-fluoropyridin-3-yl)-4-methylphenyl)-6-azaspiro[bicyclo[3.1.1]heptane-3,1′-cyclopropane]-6-carboxamide] | 0.3 | 6.00 to 10.00 |
| Cc1ccc(NC(=O)N2C3C[C@@H]2C[C@@](C)(C#N)C3)cc1-c1cncc(F)c1 (stereo in doubt) [Example 43, cis-3-cyano-N-(3-(5-fluoropyridin-3-yl)-4-methylphenyl)-3-methyl-6-azabicyclo[3.1.1]heptane-6-carboxamide] | 0.5 | 6.00 to 10.00 |
| Cc1ccc(NC(=O)N2C3C[C@H](CF)C[C@@H]2C3)cc1-c1cncc(F)c1 [Example 1, cis-3-(fluoromethyl)-N-(3-(5-fluoropyridin-3-yl)-4-methylphenyl)-6-azabicyclo[3.1.1]heptane-6-carboxamide] | 0.06 | 6.00 to 10.00 |
| CCO[C@@H]1C[C@@H]2C[C@H](C1)N2C(=O)Nc1ccc(C)c(-c2cncc(F)c2)c1 [Example 2, cis-3-ethoxy-N-(3-(5-fluoropyridin-3-yl)-4-methylphenyl)-6-azabicyclo[3.1.1]heptane-6-carboxamide] | 3.3 | 5.00 to 6.00 |
| CO[C@H]1CC2C[C@H](C1)N2C(=O)Nc1cc(-c2cncc(F)c2)c(C)cc1F [Example 3, trans-N-(2-fluoro-5-(5-fluoropyridin-3-yl)-4-methylphenyl)-3-methoxy-6-azabicyclo[3.1.1]heptane-6-carboxamide] | 2.5 | 5.00 to 6.00 |
| Cc1ccc(NC(=O)N2C3C[C@@H](C(F)F)C[C@@H]2C3)cc1-c1cncc(F)c1 [Example 4, trans-3-(difluoromethyl)-N-(3-(5-fluoropyridin-3-yl)-4-methylphenyl)-6-azabicyclo[3.1.1]heptane-6-carboxamide] | 0.1 | 6.00 to 10.00 |
| Cc1ccc(NC(=O)N2C3CCC2(C)CC3)cc1-c1cncc(F)c1 [Example 5, N-(3-(5-fluoropyridin-3-yl)-4-methylphenyl)-1-methyl-7-azabicyclo[2.2.1]heptane-7-carboxamide] | 0.3 | 6.00 to 10.00 |
| Cc1ccc(NC(=O)N2C3C[C@H]2C[C@H](n2cccn2)C3)cc1-c1cncc(F)c1 [Example 6, trans-N-(3-(5-fluoropyridin-3-yl)-4-methylphenyl)-3-(1H-pyrazol-1-yl)-6-azabicyclo[3.1.1]heptane-6-carboxamide] | 6.6 | 5.00 to 6.00 |
| CO[C@@H]1CC[C@H]2CC1N2C(=O)Nc1ccc(C)c(-c2cncc(F)c2)c1 [Example 7, trans-N-(3-(5-fluoropyridin-3-yl)-4-methylphenyl)-2-methoxy-6-azabicyclo[3.1.1]heptane-6-carboxamide] | 2 | 5.00 to 6.00 |
| Cc1ccc(NC(=O)N2C3C[C@H]2C[C@@H](C(C)(C)O)C3)cc1-c1cncc(F)c1 [Example 9, cis-N-(3-(5-fluoropyridin-3-yl)-4-methylphenyl)-3-(2-hydroxypropan-2-yl)-6-azabicyclo[3.1.1]heptane-6-carboxamide] | 4.2 | 5.00 to 6.00 |
| Cc1ccc(NC(=O)N2C3C[C@H]2C[C@@]2(C3)CC2(F)F)cc1-c1cncc(F)c1 [Example 11, cis-2′,2′-difluoro-N-(3-(5-fluoropyridin-3-yl)-4-methylphenyl)-6-azaspiro[bicyclo[3.1.1]heptane-3,1′-cyclopropane]-6-carboxamide] | 0.08 | 6.00 to 10.00 |
| Cc1ccc(NC(=O)N2C3C[C@@H]2C[C@@H](C(C)(C)O)C3)cc1-c1cncc(F)c1 [Example 14, trans-N-(3-(5-fluoropyridin-3-yl)-4-methylphenyl)-3-(2-hydroxypropan-2-yl)-6-azabicyclo[3.1.1]heptane-6-carboxamide] | 23.9 | < 5.00 |
| COC[C@H]1CC[C@H]2CC1N2C(=O)Nc1ccc(C)c(-c2cncc(F)c2)c1 [Example 15, cis-N-(3-(5-fluoropyridin-3-yl)-4-methylphenyl)-2-(methoxymethyl)-6-azabicyclo[3.1.1]heptane-6-carboxamide] | 1.7 | 5.00 to 6.00 |
| Cc1ccc(NC(=O)N2C[C@@H]3CC2C[C@H]3C#N)cc1-c1cncc(F)c1 [Example 16, cis-5-cyano-N-(3-(5-fluoropyridin-3-yl)-4-methylphenyl)-2-azabicyclo[2.2.1]heptane-2-carboxamide] | 41 | < 5.00 |
| Cc1ccc(NC(=O)N2C3C[C@H](C)C[C@@H]2C3)cc1-c1cccnc1 [Example 17, cis-3-methyl-N-(4-methyl-3-(pyridin-3-yl)phenyl)-6-azabicyclo[3.1.1]heptane-6-carboxamide] | 0.008 | 6.00 to 10.00 |
| Cc1ccc(NC(=O)N2CC3CCC2C3)cc1-c1cncc(F)c1 (stereo not drawn) [Example 18, N-(3-(5-fluoropyridin-3-yl)-4-methylphenyl)-2-azabicyclo[2.2.1]heptane-2-carboxamide] | 1 | 5.00 to 6.00 |
| Cc1ccc(NC(=O)N2C[C@H]3C[C@@H]2CN3c2ncccn2)cc1-c1cncc(F)c1 [Example 19, (1R,4R)-N-(3-(5-fluoropyridin-3-yl)-4-methylphenyl)-5-(pyrimidin-2-yl)-2,5-diazabicyclo[2.2.1]heptane-2-carboxamide] | 19.8 | < 5.00 |
| Cc1ccc(NC(=O)N2[C@H](C)CCC[C@@H]2C)cc1-c1cncc(F)c1 [Example 21, cis-N-(3-(5-fluoropyridin-3-yl)-4-methylphenyl)-2,6-dimethylpiperidine-1-carboxamide] | 1.5 | 5.00 to 6.00 |
| Cc1ccc(NC(=O)N2[C@H](C)CCC[C@H]2C)cc1-c1cncc(F)c1 [Example 22, (2R,6R)-N-(3-(5-fluoropyridin-3-yl)-4-methylphenyl)-2,6-dimethylpiperidine-1-carboxamide] | 1.2 | 5.00 to 6.00 |
| O=C(Nc1ccc(CC(F)F)c(-c2cncc(F)c2)c1)N1C2CCCC1C2 [Example 23, N-(4-(2,2-difluoroethyl)-3-(5-fluoropyridin-3-yl)phenyl)-6-azabicyclo[3.1.1]heptane-6-carboxamide] | 0.9 | 6.00 to 10.00 |
| Cc1ccc(NC(=O)N2C3C[C@@H]2C[C@H](n2cccn2)C3)cc1-c1cncc(F)c1 [Example 27, cis-N-(3-(5-fluoropyridin-3-yl)-4-methylphenyl)-3-(1H-pyrazol-1-yl)-6-azabicyclo[3.1.1]heptane-6-carboxamide] | 14.1 | < 5.00 |
| O=C(Nc1ccc(CCF)c(-c2cncc(F)c2)c1)N1C2CCCC1C2 [Example 28, N-(4-(2-fluoroethyl)-3-(5-fluoropyridin-3-yl)phenyl)-6-azabicyclo[3.1.1]heptane-6-carboxamide] | 0.8 | 6.00 to 10.00 |
| Cc1ccc(NC(=O)N2C3C[C@H](OC(F)F)C[C@@H]2C3)cc1-c1cncc(F)c1 [Example 29, cis-3-(difluoromethoxy)-N-(3-(5-fluoropyridin-3-yl)-4-methylphenyl)-6-azabicyclo[3.1.1]heptane-6-carboxamide] | 0.1 | 6.00 to 10.00 |
| Cc1ccc(NC(=O)N2C3CC[C@H](C#N)[C@@H]2C3)cc1-c1cncc(F)c1 [Example 30, cis-2-cyano-N-(3-(5-fluoropyridin-3-yl)-4-methylphenyl)-6-azabicyclo[3.1.1]heptane-6-carboxamide] | 5.5 | 5.00 to 6.00 |
